One series deals with Porcine buccal mucosa. The series can be described thus: Loxapine diffusion through Porcine buccal mucosa (Franz cell). The settings on record: penetration enhancer in loxapine oral film, permeation through the mucosa. The protocol: FIG. 1 graphically depicts 1 oxapine film diffusion through Porcine buccal mucosa (48-hrs-old unfrozen fresh mucosa) (Franz cell 1.76 cm2; 37° C.); saliva pH 6.8.
FIG. 2 graphically depicts 1 oxapine film diffusion through Porcine buccal mucosa (26-hrs-old unfrozen fresh mucosa) (Franz cell 1.76 cm2; 37° C.); saliva pH 6.8.
FIG. 3 graphically depicts 1 oxapine Solutions-diffusion through Porcine buccal mucosa (fresh mucosa kept at 4C for 48 hours) (Franz cell 1.76 cm2; 37° C.); saliva pH 6.8.
These penetration enhancers include sulphoxides (dimethylsulphoxide, decylmethyl sulfoxide), azones (laurocapram), pyrrolidones (2pyrrolidone, 2P), alcohols/alkanols (ethanol or decanol), glycols (propylene glycol), surfactants (anionic, sodium lauryl sulfate, sodium decyl sulfate), (Nonionic, Tween, PLE), (Cationic, chitosan, cetylpyridinium chloride), terpenes (1,8-cineole, menthol, and menthone, D-limonene), fatty acids (oleic acid, sodium caprate), and bile salts (sodium deoxycholate, sodium deoxyglycocholate).

For series [1] the following is noted: at or near neutral pH; cited from earlier work.

Take `O=C(O)CN(CCN(CC(=O)O)CC(=O)O)CC(=O)O.[Ca].[Na].[Na]` [Ethylenediaminetetraacetic acid calcium disodium]: in the series on Porcine buccal mucosa, the “Effect on loxapine absorption/permeation” value is given as “no effect”. As for `C=C(C)[C@@H]1CC=C(C)CC1` [(S)-(−)-Limonene], the “Effect on loxapine absorption/permeation” value with Porcine buccal mucosa is “positif effect (+)”. For `CCCCCCCCCCCCOS(=O)(=O)[O-].[Na+]` [Sodium lauryl sulphate (SLS), Sodium lauryl sulphate], the “Effect on loxapine absorption/permeation” value in the series on Porcine buccal mucosa (listed as SLS, sulphate) was “reduce absorption/permeation”; in the series with Porcine buccal mucosa (sulphate), “negative effect(−)”. In the case of Sodium deoxycholate, the “Effect on loxapine absorption/permeation” value with Porcine buccal mucosa is “positif effect (+)”. Same read-out and setting: next, `CCCCCCCCCCCCCCCC[n+]1ccccc1` [Cetylpyridinium chloride]: “no effect”. Turning to `CN1CCN(C2=Nc3ccccc3Oc3ccc(Cl)cc32)CC1` [loxapine, 2-chloro-11-(4-methylpiperazin-1-yl) dibenzo[b,f] [1,4] loxazepine], the solubility of loxapine entry in series [1] was “especially low”.

(Values after patent US20230248660A1 (Intelgenx Corp., priority 2016, published 2023).)
